The results in this text go back to patent US10457703B2, “Bile acid derivatives as FXR/TGR5 agonists and methods of use thereof” (ENANTA PHARMACEUTICALS, INC., priority 2015, dated 2019).

The assay deals with human FXR (NR1H4) (Homo sapiens (Human), UniProt Q96RI1). Nature of the assay: Human FXR (NR1H4) Assay (Gal4 promoter driven luciferase reporter, Indigo Bioscience kit).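 As to Efficacy (%): 100% equals the efficacy of CDCA; efficacy normalized to CDCA set as 100%.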 It is filed as cell-based. Particulars: for EC50: Human FXR (NR1H4) Assay, potency ranges; for Emax: read-out: Efficacy (%). In a few lines:
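CHO reporter cells expressing human FXR with an FXR-responsive luciferase reporter, treated with compound doses at 0.2% DMSO. Incubation lasted 22 h at 37 °C before luciferase detection reagent was added. Luminescence was then read.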
A general note: In a reporter assay the amount or activity of a reporter protein is the signal.

human FXR (NR1H4), sequence (Q96RI1 whole entry, the tested form may be a part): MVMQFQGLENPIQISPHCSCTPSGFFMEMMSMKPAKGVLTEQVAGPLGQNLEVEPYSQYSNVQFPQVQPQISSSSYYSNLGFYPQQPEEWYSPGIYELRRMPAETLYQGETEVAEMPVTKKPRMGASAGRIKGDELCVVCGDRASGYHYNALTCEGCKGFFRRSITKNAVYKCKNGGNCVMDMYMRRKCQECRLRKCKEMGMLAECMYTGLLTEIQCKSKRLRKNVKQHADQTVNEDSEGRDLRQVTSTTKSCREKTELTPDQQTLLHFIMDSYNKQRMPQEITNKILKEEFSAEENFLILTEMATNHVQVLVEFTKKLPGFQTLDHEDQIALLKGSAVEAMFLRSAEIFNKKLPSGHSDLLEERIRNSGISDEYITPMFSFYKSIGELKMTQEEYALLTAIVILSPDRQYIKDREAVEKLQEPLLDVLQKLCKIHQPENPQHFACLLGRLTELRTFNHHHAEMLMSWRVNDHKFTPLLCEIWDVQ

As to `CC[C@H]1[C@@H](O)[C@@H]2[C@H](CC[C@]3(C)[C@@H]([C@H](C)CCOC(=O)NS(=O)(=O)c4ccc5c(c4)OCCO5)CC[C@@H]23)[C@@]2(C)CC[C@@H](O)C[C@@H]12` [Example 90], the EC50 (commonly the midpoint of the concentration-response curve) is < 100 nM and the Emax came to 225%.
In the same order, the values of `CC[C@H]1[C@@H](O)[C@@H]2[C@H](CC[C@]3(C)[C@@H]([C@H](C)CCOC(=O)NS(=O)(=O)CCc4cccc(Cl)c4)CC[C@@H]23)[C@@]2(C)CC[C@@H](O)C[C@@H]12` [Example 91] are 100 to 1000 nM and 313%.
In the same order, the values of `CC[C@H]1[C@@H](O)[C@@H]2[C@H](CC[C@]3(C)[C@@H]([C@H](C)CCOC(=O)NS(=O)(=O)CCC(=O)OC)CC[C@@H]23)[C@@]2(C)CC[C@@H](O)C[C@@H]12` [Example 92] are 1000 to 10000 nM and 218%.
The matching figures for `CC[C@H]1[C@@H](O)[C@@H]2[C@H](CC[C@]3(C)[C@@H]([C@H](C)CCOC(=O)NS(=O)(=O)c4ccc5c(c4)OCO5)CC[C@@H]23)[C@@]2(C)CC[C@@H](O)C[C@@H]12` [Example 93]: < 100 nM and 288%.
For the molecule `CC[C@H]1[C@@H](O)[C@@H]2[C@H](CC[C@]3(C)[C@@H]([C@H](C)CCOC(=O)NS(=O)(=O)c4ccc(OC)c(F)c4)CC[C@@H]23)[C@@]2(C)CC[C@@H](O)C[C@@H]12` [Example 94], the half-maximal effective concentration (EC50) is < 100 nM and the Emax is 268%.
The matching figures for `CC[C@H]1[C@@H](O)[C@@H]2[C@H](CC[C@]3(C)[C@@H]([C@H](C)CCOC(=O)NS(=O)(=O)c4cccnc4)CC[C@@H]23)[C@@]2(C)CC[C@@H](O)C[C@@H]12` [Example 95]: 1000 to 10000 nM and 420%.
In the same order, the values of `CCC(CC)S(=O)(=O)NC(=O)OCC[C@@H](C)[C@H]1CC[C@H]2[C@@H]3[C@H](O)[C@H](CC)[C@@H]4C[C@H](O)CC[C@]4(C)[C@H]3CC[C@]12C` [Example 96] are < 100 nM and 388%.
The matching figures for `CC[C@H]1[C@@H](O)[C@@H]2[C@H](CC[C@]3(C)[C@@H]([C@H](C)CCOC(=O)NS(C)(=O)=O)CC[C@@H]23)[C@@]2(C)CC[C@@H](O)C[C@@H]12` [Example 97]: 100 to 1000 nM and 245%.
Consider `CC[C@H]1[C@@H](O)[C@@H]2[C@H](CC[C@]3(C)[C@@H]([C@H](C)CCOC(=O)NS(=O)(=O)CC)CC[C@@H]23)[C@@]2(C)CC[C@@H](O)C[C@@H]12` [Example 98], for which the EC50 lay within 100 to 1000 nM and the Emax came out at 279%.
The matching figures for `CC[C@H]1[C@@H](O)[C@@H]2[C@H](CC[C@]3(C)[C@@H]([C@H](C)CCOC(=O)NS(=O)(=O)c4cnccn4)CC[C@@H]23)[C@@]2(C)CC[C@@H](O)C[C@@H]12` [Example 99]: 1000 to 10000 nM and 51%.
The matching figures for `CC[C@H]1[C@@H](O)[C@@H]2[C@H](CC[C@]3(C)[C@@H]([C@H](C)CCOC(=O)NS(=O)(=O)c4ccc(OC(C)C)cc4)CC[C@@H]23)[C@@]2(C)CC[C@@H](O)C[C@@H]12` [Example 100]: < 100 nM and 316%.
In the same order, the values of `CC[C@H]1[C@@H](O)[C@@H]2[C@H](CC[C@]3(C)[C@@H]([C@H](C)CCOC(=O)NS(=O)(=O)c4ccc(OCC(F)(F)F)cc4)CC[C@@H]23)[C@@]2(C)CC[C@@H](O)C[C@@H]12` [Example 101] are 100 to 1000 nM and 289%.
For the molecule `CC[C@H]1[C@@H](O)[C@@H]2[C@H](CC[C@]3(C)[C@@H]([C@H](C)CCOC(=O)NS(=O)(=O)c4ccc(F)c(F)c4)CC[C@@H]23)[C@@]2(C)CC[C@@H](O)C[C@@H]12` [Example 102], the EC50 was < 100 nM and the Emax stood at 235%.
The matching figures for `CC[C@H]1[C@@H](O)[C@@H]2[C@H](CC[C@]3(C)[C@@H]([C@H](C)CCOC(=O)NS(=O)(=O)CC(C)(C)C)CC[C@@H]23)[C@@]2(C)CC[C@@H](O)C[C@@H]12` [Example 103]: < 100 nM and 294%.
The matching figures for `CC[C@H]1[C@@H](O)[C@@H]2[C@H](CC[C@]3(C)[C@@H]([C@H](C)CCOC(=O)NS(=O)(=O)C4CCCCC4)CC[C@@H]23)[C@@]2(C)CC[C@@H](O)C[C@@H]12` [Example 104-a]: < 100 nM and 242%.
As to `CC[C@H]1[C@@H](O)[C@@H]2[C@H](CC[C@]3(C)[C@@H]([C@H](C)CCOC(=O)NS(=O)(=O)c4ccc(C)cc4)CC[C@@H]23)[C@@]2(C)CC[C@@H](O)C[C@@H]12` [Example 104-b], the EC50 was < 100 nM and the Emax turned out to be 363%.
The matching figures for `CC[C@H]1[C@@H](O)[C@@H]2[C@H](CC[C@]3(C)[C@@H]([C@H](C)CCOC(=O)NS(=O)(=O)c4nccs4)CC[C@@H]23)[C@@]2(C)CC[C@@H](O)C[C@@H]12` [Example 104-c]: 1000 to 10000 nM and 34%.
In the same order, the values of `CC[C@H]1[C@@H](O)[C@@H]2[C@H](CC[C@]3(C)[C@@H]([C@H](C)CCOC(=O)NS(=O)(=O)c4ncccn4)CC[C@@H]23)[C@@]2(C)CC[C@@H](O)C[C@@H]12` [Example 104-d] are 1000 to 10000 nM and 35%.
For the molecule `CC[C@H]1[C@@H](O)[C@@H]2[C@H](CC[C@]3(C)[C@@H]([C@H](C)CCOC(=O)N4CCCCS4(=O)=O)CC[C@@H]23)[C@@]2(C)CC[C@@H](O)C[C@@H]12` [Example 104-e], the EC50 was 100 to 1000 nM and the Emax is 239%.
The matching figures for `CC[C@H]1[C@@H](O)[C@@H]2[C@H](CC[C@]3(C)[C@@H]([C@H](C)CCOC(=O)NS(=O)(=O)c4ccc5ccsc5c4)CC[C@@H]23)[C@@]2(C)CC[C@@H](O)C[C@@H]12` [Example 104-f]: < 100 nM and 213%.
The matching figures for `CC[C@H]1[C@@H](O)[C@@H]2[C@H](CC[C@]3(C)[C@@H]([C@H](C)CCOC(=O)NS(=O)(=O)N4CC(C)(C)C4)CC[C@@H]23)[C@@]2(C)CC[C@@H](O)C[C@@H]12` [Example 104-g]: < 100 nM and 289%.
As for `CC[C@H]1[C@@H](O)[C@@H]2[C@H](CC[C@]3(C)[C@@H]([C@H](C)CCOC(=O)NS(=O)(=O)c4cc(C(F)(F)F)cc(C(F)(F)F)c4)CC[C@@H]23)[C@@]2(C)CC[C@@H](O)C[C@@H]12` [Example 104-h], the EC50 fell in the range of 1000 to 10000 nM and the Emax stood at 208%.
Turning to `CC[C@H]1[C@@H](O)[C@@H]2[C@H](CC[C@]3(C)[C@@H]([C@H](C)CCOC(=O)NS(=O)(=O)C4CCC4)CC[C@@H]23)[C@@]2(C)CC[C@@H](O)C[C@@H]12` [Example 104-i], the concentration giving a half-maximal response (EC50) was < 100 nM and the Emax turned out to be 314%.
The matching figures for `CC[C@H]1[C@@H](O)[C@@H]2[C@H](CC[C@]3(C)[C@@H]([C@H](C)CCOC(=O)NS(=O)(=O)N4CC(F)(F)C4)CC[C@@H]23)[C@@]2(C)CC[C@@H](O)C[C@@H]12` [Example 104-j]: < 100 nM and 327%.
The matching figures for `CC[C@H]1[C@@H](O)[C@@H]2[C@H](CC[C@]3(C)[C@@H]([C@H](C)CCOC(=O)NS(=O)(=O)c4ccc(OC(F)(F)F)c(F)c4)CC[C@@H]23)[C@@]2(C)CC[C@@H](O)C[C@@H]12` [Example 104-k]: 100 to 1000 nM and 180%.
The matching figures for `CC[C@H]1[C@@H](O)[C@@H]2[C@H](CC[C@]3(C)[C@@H]([C@H](C)CCOC(=O)NS(=O)(=O)C(F)(F)F)CC[C@@H]23)[C@@]2(C)CC[C@@H](O)C[C@@H]12` [Example 108]: 1000 to 10000 nM and 309%.
On to `CC[C@H]1[C@@H](O)[C@@H]2[C@H](CC[C@]3(C)[C@@H]([C@H](C)CCOC(=O)N4CC(=O)N(Cc5ccccc5)S4(=O)=O)CC[C@@H]23)[C@@]2(C)CC[C@@H](O)C[C@@H]12` [Example 109], for which the EC50 lay within 1000 to 10000 nM and the Emax stood at 142%.
Consider `CC[C@H]1[C@@H](O)[C@@H]2[C@H](CC[C@]3(C)[C@@H]([C@H](C)CCOC(=O)N4CC(=O)NS4(=O)=O)CC[C@@H]23)[C@@]2(C)CC[C@@H](O)C[C@@H]12` [Example 110], for which the EC50 was 1000 to 10000 nM and the Emax was 28%.
For `CC[C@H]1[C@@H](O)[C@@H]2[C@H](CC[C@]3(C)[C@@H]([C@H](C)CCCOC(=O)NS(=O)(=O)c4ccc(C(C)(C)C)cc4)CC[C@@H]23)[C@@]2(C)CC[C@@H](O)C[C@@H]12` [Example 111], the EC50 is 100 to 1000 nM and the Emax came to 208%.
Regarding `CC[C@H]1[C@@H](O)[C@@H]2[C@H](CC[C@]3(C)[C@@H]([C@H](C)CCCOC(=O)NS(=O)(=O)c4cccc(C(C)(C)C)c4)CC[C@@H]23)[C@@]2(C)CC[C@@H](O)C[C@@H]12` [Example 112], the EC50 fell in the range of 100 to 1000 nM and the Emax worked out at 123%.
In the same order, the values of `CC[C@H]1[C@@H](O)[C@@H]2[C@H](CC[C@]3(C)[C@@H]([C@H](C)CCCOC(=O)NS(C)(=O)=O)CC[C@@H]23)[C@@]2(C)CC[C@@H](O)C[C@@H]12` [Example 113] are 1000 to 10000 nM and 130%.
The matching figures for `CC[C@H]1[C@@H](O)[C@@H]2[C@H](CC[C@]3(C)[C@@H]([C@H](C)CCCOC(=O)NS(=O)(=O)C(C)C)CC[C@@H]23)[C@@]2(C)CC[C@@H](O)C[C@@H]12` [Example 114]: 100 to 1000 nM and 345%.
